Laboratory results reported in article PMC12467740, “Synthesis, Characterization, and Screening Anticancer—Antibiofilm Activities of Theophylline Derivatives Containing CF3/OCF3 Moiety” (Biology, 2025).
Where “and” joins values, the source holds several entries; their conditions need not be identical. Equal entries are not always repeated.

Legend:
CYP450 = details: cited from earlier work
HeLa cells [1] = assay: RT-qPCR of apoptosis-related genes, HeLa; type: cell-based, human; details: IC50 concentration, 48 h, vs untreated control
Protocol: (§1) Total RNA was isolated from cells using the RNeasy Mini Kit (Qiagen GmbH, Hilden, Germany) according to the manufacturer’s instructions. RNA quality and quantity were evaluated spectrophotometrically. Subsequently, cDNA synthesis was performed using the iScript™ cDNA Synthesis Kit (Bio-Rad Laboratories, Hercules, CA, USA).
(§2) RT-qPCR reactions (LightCycler® 480 Instrument II (Roche Diagnostics, Mannheim, Germany) were carried out using SYBR™ Green PCR Master Mix (Applied Biosystems, Foster City, CA, USA) and gene-specific primers targeting pro-apoptotic genes (CASP3, CASP8, CASP9, BAX, BAK1, PUMA, NOXA, CYCS), anti-apoptotic genes (BCL2, BCL-XL, MCL1), cell cycle/stress-related genes (TP53, CDKN1A/p21, GADD45A, ATF4), and the reference gene GAPDH. The primer sequences used for each gene are presented in the Supplementary File (Figure S66).
(§3) All reactions were conducted in triplicate, and negative controls (no-template controls, NTC) were included in each run. Relative gene expression levels were analyzed using the 2^−ΔΔCt method, and results were normalized to control samples (control expression set as ‘1’) and expressed as fold change relative to controls.

HeLa cells [2] = assay: MTT cell viability assay, HeLa; type: cell-based, human; details: for IC50: 48 h, MTT, mean ± SD (n = 3); for SI (HeLa): ratio of IC50 in BEAS-2B cells to IC50 in HeLa cells
Protocol: (§4) The anticancer potential of substituted theophylline derivatives was investigated using human lung carcinoma (A549, CCL-185) and cervical cancer (HeLa, CCL-2) cell lines obtained from the American Type Culture Collection (ATCC). To evaluate the selectivity of the tested compounds, cytotoxicity was also assessed in a healthy human bronchial epithelial cell line (BEAS-2B, ATCC CRL-9609). Cells were maintained in DMEM (Euroclone S.p.A., Pero, Italy supplemented with 10% fetal bovine serum (Sigma-Aldrich, St. Louis, MO, USA) and 1% penicillin–streptomycin (1%, Capricorn Scientific GmbH, Ebsdorfergrund, Germany at 37 °C in a humidified atmosphere containing 5% CO2. The theophylline-derived compounds (1a–1e) were dissolved in DMSO to prepare 100 mM stock solutions, which were then diluted with DMEM to obtain final working concentrations ranging from 3.125 µM to 100 µM. To evaluate cell viability, the MTT colorimetric assay was employed. Upon reaching logarithmic growth, A549, HeLa and BEAS-2B cells were seeded at a density of 7000 cells per well in 96-well microplates and allowed to attach for 24 h. Following this, cells were treated with different concentrations of the compounds and incubated for 48 h. After treatment, 100 µL of fresh medium and 20 µL of MTT reagent (5 mg/mL, Bio Basic Inc., Markham, ON, Canada) were added to each well, and cells were incubated for an additional 3 h. The resulting formazan crystals were solubilized with DMSO. Cell viability was calculated as the percentage of absorbance relative to untreated controls, and IC50 values were determined by nonlinear regression analysis using GraphPad Prism software, version 8.0 (GraphPad Software, San Diego, CA, USA. All experiments were performed in at least three independent replicates, and results are reported as mean ± SD. The percentage of inhibition was calculated based on the reduction in metabolic activity of the cells following compound treatment, as assessed by the MTT assay. The absorbance was measured at 570 nm using a microplate reader. The inhibition (%) was calculated using the following formula:Inhibition %=[1 − (Asample − Ablank)/[…]] × 100 To assess the tumor selectivity of the tested theophylline derivatives, the selectivity index (SI) was calculated for each compound. SI is defined as the ratio of the IC50 value in healthy (non-tumorigenic) cells to the IC50 value in cancer cells. In this study, IC50 values were determined for BEAS-2B (non-tumorigenic human bronchial epithelial cells) as a healthy control and for A549 (lung adenocarcinoma) and HeLa (cervical carcinoma) as tumor models. The SI was calculated according to the following equation:SI = [IC50, healthy/IC50, cancer]

HeLa cells [3] = assay: ELISA of apoptosis-related proteins, HeLa; type: cell-based, human; details: IC50, 48 h, vs untreated controls
Protocol: (§5) To validate the gene expression changes observed in the RT-qPCR analysis at the protein level, ELISA assays were conducted to measure the protein levels in A549 and HeLa cells. […] Following incubation, cells were washed with cold PBS and lysed using RIPA buffer supplemented with protease and phosphatase inhibitors. […] was removed by centrifugation at 14,000× g for 10 min. Total protein concentration in the cell lysates was determined spectrophotometrically using the BCA Protein Assay Kit (Thermo Scientific, Waltham, MA, USA). Protein concentrations were standardized to equal amounts across all samples prior to ELISA analysis. Commercially available Human ELISA Kit (Abcam, Cambridge, UK) were used to quantify Caspase-3, BAX, BCL-2, and Cytochrome C levels, and all assays were performed according to the manufacturers’ protocols. Absorbance was measured at 450 nm using a microplate reader. All experiments were conducted in triplicate. The results were normalized to the control group (control = 1) and expressed as fold change relative to untreated controls.

BEAS-2B cells = assay: MTT cell viability assay, BEAS-2B; type: cell-based; details: Homo sapiens, 48 h, mean ± SD (n = 3)
Protocol: as §4

A549 cells [4] = assay: MTT cell viability assay, A549; type: cell-based, human; details: for IC50: MTT, 48 h, mean ± SD (n = 3); for SI (A549): ratio of IC50 in BEAS-2B cells to IC50 in A549 cells
Protocol: as §4

Pseudomonas aeruginosa = assay: Well plate biofilm formation assay (crystal violet); type: cell-based; details: over the concentration range given per compound (Table 4)
Protocol: (§6) The well plate assay was utilized to test the effectiveness of compounds in inhibiting biofilms made by microorganisms. An amount of 100 μL of Brucella broth (Remel, Lenexa, KS, USA) containing 1% and 20% glucose (Biolife, Milan, Italy), were dispensed into the test wells. In the next step, 100 μL of compounds ranging from 0.244 to 1000 μg/mL were poured into the wells. […] Then, 0.5 McFarland standard in physiological saline from each microorganism strain were prepared and 20 μL of the prepared suspension was added to the wells. A column of the microplate containing 100 μL Brucella broth served as a negative control and another column of the microplate containing 100 μL Brucella with 20 μL of each microorganism added served as a growth control. As positive controls, ciprofloxacin was applied against bacterial strains at a concentration range of 0.03125-64 μg/mL, and fluconazole was used against Candida albicans at a concentration range of 0.3125-640 μg/mL. Plates were left to incubate at 36.5 °C for a day. The plates were emptied and then washed three times with 300 μL of deionized water. The wells were left to dry for half an hour. The next step was staining with 0.1% (w/v) violet dye ([…]), cleaning three times with deionized water, and drying at room temperature. The crystal violet adhering to the wall of the wells was dissolved with 95% ethanol, and the optical density was measured at 570 nm. The test was run two times, and the mean value was calculated. Biofilm preventing (%) = {(ODb - ODc)/ODb} × 100.

Escherichia coli = assay: as above; type: cell-based; details: over the concentration range given per compound (Table 4)
Protocol: as §6

Staphylococcus aureus = assay: as above; type: cell-based; details: over the concentration range given per compound (Table 4); 1c and 1e at 1000 µg/mL
Protocol: as §6

A549 cells [5] = assay: RT-qPCR of apoptosis-related genes, A549; type: cell-based, human; details: A549, IC50 concentration, 48 h, vs untreated control
Protocol: as §1, §2, §3

Enterococcus faecalis = assay: Well plate biofilm formation assay (crystal violet); type: cell-based; details: over the concentration range given per compound (Table 4)
Protocol: as §6

Candida albicans = assay: as above; type: cell-based; details: over the concentration range given per compound (Table 4)
Protocol: as §6

A549 cells [6] = assay: ELISA of apoptosis-related proteins, A549; type: cell-based, human; details: A549, IC50, 48 h, vs untreated controls
Protocol: as §5

C[C@]12CC[C@H](O)CC1=CC[C@@H]1[C@@H]2CC[C@]2(C)C(c3cccnc3)=CC[C@@H]12 [Abiraterone]
binding properties (docking) (CYP450): -10.3 kcal/mol

Cn1c(=O)c2c(ncn2Cc2ccccc2C(F)(F)F)n(C)c1=O [Compound 1a, 1,3-Dimethyl-7-(2-(trifluoromethyl)benzyl)-3,7-dihydro-1H-purine-2,6-dione]
Expression of anti-apoptotic genes (BCL2, BCL-XL, MCL1) (HeLa cells [1]): notable downregulation | Expression of pro-apoptotic genes (CASP3, CASP8, CASP9, BAX, BAK1, PUMA, NOXA, CYCS) and cell cycle/stress genes (TP53, CDKN1A, FAS, GADD45A, ATF4) (HeLa cells [1]): significant upregulation | IC50 (HeLa cells [2]; Homo sapiens, HeLa): 11.5 ± 1.2 µM | SI (HeLa) (HeLa cells [2]): 8.70 ± 0.20 | Protein level of BCL-2 (HeLa cells [3]): marked decrease | Protein levels of Caspase-3, BAX and Cytochrome C (HeLa cells [3]): significant increases | IC50 (BEAS-2B cells): 100 ± 2 µM | IC50 (A549 cells [4]; Homo sapiens, A549, 48 h): 15.7 ± 0.6 µM | IC50 (A549 cells [4]): 12.4 ± 0.7 µM | SI (A549) (A549 cells [4]): 8.06 ± 0.03 and 8.06 ± 0.10 | Antibiofilm activity Pseudomonas aeruginosa (Pseudomonas aeruginosa): did not show antibiofilm activity and – | Antibiofilm activity Escherichia coli (Escherichia coli): did not show antibiofilm activity and – | Antibiofilm activity Staphylococcus aureus (Staphylococcus aureus): did not show antibiofilm activity and – | Expression of anti-apoptotic genes (BCL2, BCL-XL, MCL1) (A549 cells [5]): notable downregulation | Expression of pro-apoptotic genes (CASP3, CASP8, CASP9, BAX, BAK1, PUMA, NOXA, CYCS) and cell cycle/stress genes (TP53, CDKN1A, FAS, GADD45A, ATF4) (A549 cells [5]): significant upregulation | Antibiofilm activity Enterococcus faecalis (Enterococcus faecalis): 1.08–14.7% | Antibiofilm activity Candida albicans (Candida albicans): 0.5–13.7% | Protein level of BCL-2 (A549 cells [6]): marked decrease | Protein levels of Caspase-3, BAX and Cytochrome C (A549 cells [6]): significant increases

Cn1c(=O)c2c(ncn2Cc2cccc(C(F)(F)F)c2)n(C)c1=O [Compound 1b, 1,3-Dimethyl-7-(3-(trifluoromethyl)benzyl)-3,7-dihydro-1H-purine-2,6-dione]
IC50 (HeLa cells [2]; Homo sapiens, HeLa): 10.8 ± 0.8 µM | IC50 (HeLa cells [2]): 14.7 ± 0.7 µM | SI (HeLa) (HeLa cells [2]): 8.16 ± 0.16 | IC50 (BEAS-2B cells): 120 ± 3 µM | IC50 (A549 cells [4]; Homo sapiens, A549, 48 h): 12.4 ± 0.7 µM | IC50 (A549 cells [4]): 13.6 ± 0.9 µM | SI (A549) (A549 cells [4]): 8.82 ± 0.20 | Antibiofilm activity Pseudomonas aeruginosa (Pseudomonas aeruginosa): did not show antibiofilm activity and – | Antibiofilm activity Escherichia coli (Escherichia coli): did not show antibiofilm activity and – | Antibiofilm activity Staphylococcus aureus (Staphylococcus aureus): did not show antibiofilm activity and – | Antibiofilm activity Enterococcus faecalis (Enterococcus faecalis): 5.7–23.1% | Antibiofilm activity Candida albicans (Candida albicans): 0.8–23.9%

Cn1c(=O)c2c(ncn2Cc2ccc(C(F)(F)F)cc2)n(C)c1=O [Compound 1c, 1,3-Dimethyl-7-(4-(trifluoromethyl)benzyl)-3,7-dihydro-1H-purine-2,6-dione]
IC50 (HeLa cells [2]; Homo sapiens, HeLa): 14.7 ± 0.7 µM | IC50 (HeLa cells [2]): 11.5 ± 1.2 µM | SI (HeLa) (HeLa cells [2]): 7.83 ± 0.22 | IC50 (BEAS-2B cells): 90 ± 3 µM | IC50 (A549 cells [4]; Homo sapiens, A549, 48 h): 13.6 ± 0.9 µM | IC50 (A549 cells [4]): 15.7 ± 0.6 µM | SI (A549) (A549 cells [4]): 5.73 ± 0.15 | Antibiofilm activity Pseudomonas aeruginosa (Pseudomonas aeruginosa): did not show antibiofilm activity and – | Antibiofilm activity Escherichia coli (Escherichia coli): did not show antibiofilm activity and – | Antibiofilm activity Staphylococcus aureus (Staphylococcus aureus): 20.1% | Antibiofilm activity Enterococcus faecalis (Enterococcus faecalis): 0.7–16.0% | Antibiofilm activity Candida albicans (Candida albicans): 0.9–12.3%

Cn1c(=O)c2c(ncn2Cc2cc(C(F)(F)F)cc(C(F)(F)F)c2)n(C)c1=O [Compound 1d, 1,3-Dimethyl-7-(3,5-bis(trifluoromethyl)benzyl)-3,7-dihydro-1H-purine-2,6-dione]
IC50 (HeLa cells [2]; Homo sapiens, HeLa): 32.4 ± 0.85 µM | IC50 (HeLa cells [2]): 34.5 ± 1 µM | SI (HeLa) (HeLa cells [2]): 4.35 ± 0.13 | IC50 (BEAS-2B cells): 150 ± 4 µM | IC50 (A549 cells [4]; Homo sapiens, A549, 48 h): 29.1 ± 0.5 µM | IC50 (A549 cells [4]): 31.4 ± 1 µM | SI (A549) (A549 cells [4]): 4.78 ± 0.14 | Antibiofilm activity Pseudomonas aeruginosa (Pseudomonas aeruginosa): did not show antibiofilm activity and – | Antibiofilm activity Escherichia coli (Escherichia coli): did not show antibiofilm activity and – | Antibiofilm activity Staphylococcus aureus (Staphylococcus aureus): did not show antibiofilm activity and – | Antibiofilm activity Enterococcus faecalis (Enterococcus faecalis): 0.7–23.9% | Antibiofilm activity Candida albicans (Candida albicans): 1.8–11.8%

Cn1c(=O)c2c(ncn2Cc2ccc(OC(F)(F)F)cc2)n(C)c1=O [Compound 1e, 1,3-Dimethyl-7-(4-(trifluoromethoxy)benzyl)-3,7-dihydro-1H-purine-2,6-dione]
IC50 (HeLa cells [2]; Homo sapiens, HeLa): 34.5 ± 1.25 µM | IC50 (HeLa cells [2]): 32.4 ± 0.8 µM | SI (HeLa) (HeLa cells [2]): 4.32 ± 0.11 | IC50 (BEAS-2B cells): 140 ± 3 µM | IC50 (A549 cells [4]; Homo sapiens, A549, 48 h): 31.4 ± 1 µM | IC50 (A549 cells [4]): 29.1 ± 0.5 µM | SI (A549) (A549 cells [4]): 4.81 ± 0.09 | Antibiofilm activity Pseudomonas aeruginosa (Pseudomonas aeruginosa): did not show antibiofilm activity and – | Antibiofilm activity Escherichia coli (Escherichia coli): did not show antibiofilm activity and – | Antibiofilm activity Staphylococcus aureus (Staphylococcus aureus): 13.6% | Antibiofilm activity Enterococcus faecalis (Enterococcus faecalis): 5.1–13.9% | Antibiofilm activity Candida albicans (Candida albicans): 0.4–23.4%
